According to ChEMBL document CHEMBL1134912, “Cytotoxic acridinylthiourea and its platinum conjugate produce enzyme-mediated DNA strand breaks” (Bioorg Med Chem Lett, 2002):
Activity calls are given as the source filed them. The rule behind the calls is not given here.

Tests used:
Ovarian cancer cell line = test: Clonogenic survival activity against human ovarian cancer cells (2008, C13*) cells; 0.01-10 range; format: functional, cell-based
[1] = Concentration required for complete inhibition of relaxation of supercoiled plasmid (form I) at concentrations; format: functional
Nucleic Acid = test: Compound was tested for the induction of DNA strand breaks at concentrations of 0.1 and 0.5 uM; Active; format: nucleic-acid assay

In the case of `CNC(=S)N(C)CCNc1c2ccccc2nc2ccccc12`, the IC50 (Ovarian cancer cell line) is reported as 10 nM, the Inhibition concentration [1] is reported as greater than 25 µM and the Activity (Nucleic Acid) is reported as “Active”.
